Data published in US10590084B2, “Cyclic keto-amide compounds as calpain modulators and methods of production and use thereof” (Blade Therapeutics, Inc., priority 2016, dated 2020).

What was measured:
[1] = target: T1, Human Calpain 1/NS1 (Homo sapiens, UniProt P07384); test: Biochemical inhibition of Calpain 1, continuous fluorescence (FRET) assay; settings: mean; class symbols; read-out: Human Calpain 1/NS1 IC50 (nM)_MEAN
T1 sequence (P07384 1-714): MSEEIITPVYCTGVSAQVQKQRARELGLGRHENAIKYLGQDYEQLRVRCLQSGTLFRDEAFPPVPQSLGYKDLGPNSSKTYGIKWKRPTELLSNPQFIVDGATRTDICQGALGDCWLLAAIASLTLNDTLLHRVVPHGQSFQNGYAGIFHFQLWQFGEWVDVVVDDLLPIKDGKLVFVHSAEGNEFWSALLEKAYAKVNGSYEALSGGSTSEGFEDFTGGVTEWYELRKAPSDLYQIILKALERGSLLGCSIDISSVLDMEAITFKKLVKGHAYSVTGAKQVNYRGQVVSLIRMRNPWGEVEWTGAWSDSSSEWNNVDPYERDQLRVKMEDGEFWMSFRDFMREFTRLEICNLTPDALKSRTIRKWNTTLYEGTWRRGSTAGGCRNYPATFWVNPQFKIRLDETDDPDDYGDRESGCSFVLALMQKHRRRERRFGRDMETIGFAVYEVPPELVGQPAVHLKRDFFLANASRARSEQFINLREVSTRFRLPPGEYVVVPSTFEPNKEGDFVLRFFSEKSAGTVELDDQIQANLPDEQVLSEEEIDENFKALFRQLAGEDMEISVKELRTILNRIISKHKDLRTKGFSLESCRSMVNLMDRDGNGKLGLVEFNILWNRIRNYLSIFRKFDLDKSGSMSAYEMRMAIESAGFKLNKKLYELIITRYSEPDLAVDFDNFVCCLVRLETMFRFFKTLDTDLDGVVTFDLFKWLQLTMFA
T1 sequence (P04632 1-268 partner): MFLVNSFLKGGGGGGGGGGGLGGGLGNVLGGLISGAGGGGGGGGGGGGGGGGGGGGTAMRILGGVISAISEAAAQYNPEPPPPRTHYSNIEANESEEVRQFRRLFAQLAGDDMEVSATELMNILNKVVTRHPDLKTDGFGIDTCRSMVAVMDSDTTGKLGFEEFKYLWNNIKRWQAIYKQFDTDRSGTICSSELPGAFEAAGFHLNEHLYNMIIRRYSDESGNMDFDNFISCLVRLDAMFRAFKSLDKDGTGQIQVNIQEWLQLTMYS
Description: (§1) Biochemical inhibition of Calpains 1, 2, and 9.
(§2) Calpains 1, 2, and 9 activity and inhibition thereof are assessed by means of a continuous fluorescence assay. The SensoLyte 520 Calpain substrate (Anaspec Inc) is optimized for detecting calpain activity. This substrate contains a novel internally quenched 5-FAM/QXLTM 520 FRET pair. Calpains 1, 2 and 9 cleave the FRET substrate into two separate fragments resulting in an increase of 5-FAM fluorescence that is proportional to calpain activity.
(§3) Assays are typically setup in black 384-well plates using automated liquid handling as follows. Calpain assay base buffer typically contains 50 mM Tris, pH 7.5, 100 mM NaCl and 1 mM DTT. Inhibitors are serially diluted in DMSO and used to setup 2× mixtures with calpains in the aforementioned buffer. After incubation at ambient temperature (25 C), the reaction is initiated by adding a 2× mix of the fluorescent peptide substrate and CaCl2 (required for in-situ calpain activation) in the same buffer. Reaction progress curve data are typically collected for 10 min using excitation/emission wavelengths of 490 nm/520 nm on SpectraMax i3x or the FLIPR-Tetra plate readers (Molecular Devices Inc). Reaction rates were calculated from progress curve slopes typically over 1-5 min. Dose response curves (rate vs. log inhibitor concentration) were typically fit to a 4-parameter logistic function to extract IC50 values.
Column A: Human Calpain 1/NS1 IC50 (nM)_MEAN

[2] = target: T2, Human Calpain 2/NS1 (Homo sapiens, UniProt P17655); test: Biochemical inhibition of Calpain 2, continuous fluorescence (FRET) assay; settings: mean; class symbols; read-out: Human Calpain 2/NS1 IC50 (nM)_MEAN
T2 sequence (P17655 1-700): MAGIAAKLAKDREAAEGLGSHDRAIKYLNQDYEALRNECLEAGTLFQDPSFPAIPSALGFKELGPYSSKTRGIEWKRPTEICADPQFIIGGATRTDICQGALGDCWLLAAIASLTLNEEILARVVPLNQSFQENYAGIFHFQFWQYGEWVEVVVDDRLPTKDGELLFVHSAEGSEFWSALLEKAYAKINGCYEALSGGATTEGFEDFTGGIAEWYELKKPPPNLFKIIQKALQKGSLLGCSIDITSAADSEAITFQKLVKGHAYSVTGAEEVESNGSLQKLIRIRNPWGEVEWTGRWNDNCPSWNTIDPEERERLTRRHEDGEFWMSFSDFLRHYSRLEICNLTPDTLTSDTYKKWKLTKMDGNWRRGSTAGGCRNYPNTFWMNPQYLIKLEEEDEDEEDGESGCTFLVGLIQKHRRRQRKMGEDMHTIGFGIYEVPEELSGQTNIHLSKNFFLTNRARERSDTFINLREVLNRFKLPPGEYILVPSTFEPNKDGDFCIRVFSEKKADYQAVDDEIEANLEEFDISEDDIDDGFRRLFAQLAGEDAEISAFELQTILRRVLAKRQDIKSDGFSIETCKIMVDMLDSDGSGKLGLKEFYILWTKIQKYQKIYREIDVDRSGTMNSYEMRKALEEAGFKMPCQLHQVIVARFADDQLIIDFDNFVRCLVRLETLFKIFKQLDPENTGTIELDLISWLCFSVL
T2 sequence (P04632 1-268 partner): T1 sequence (P04632 1-268 partner)
Description: as §1, §2, §3
Column B: Human Calpain 2/NS1 IC50 (nM)_MEAN

[3] = target: T3, Human Calpain 9/NS1 (Homo sapiens, UniProt O14815); test: Biochemical inhibition of Calpain 9, continuous fluorescence (FRET) assay; settings: mean; class symbols; read-out: Human Calpain 9/NS1 IC50 (nM)_MEAN
T3 sequence (O14815 1-690): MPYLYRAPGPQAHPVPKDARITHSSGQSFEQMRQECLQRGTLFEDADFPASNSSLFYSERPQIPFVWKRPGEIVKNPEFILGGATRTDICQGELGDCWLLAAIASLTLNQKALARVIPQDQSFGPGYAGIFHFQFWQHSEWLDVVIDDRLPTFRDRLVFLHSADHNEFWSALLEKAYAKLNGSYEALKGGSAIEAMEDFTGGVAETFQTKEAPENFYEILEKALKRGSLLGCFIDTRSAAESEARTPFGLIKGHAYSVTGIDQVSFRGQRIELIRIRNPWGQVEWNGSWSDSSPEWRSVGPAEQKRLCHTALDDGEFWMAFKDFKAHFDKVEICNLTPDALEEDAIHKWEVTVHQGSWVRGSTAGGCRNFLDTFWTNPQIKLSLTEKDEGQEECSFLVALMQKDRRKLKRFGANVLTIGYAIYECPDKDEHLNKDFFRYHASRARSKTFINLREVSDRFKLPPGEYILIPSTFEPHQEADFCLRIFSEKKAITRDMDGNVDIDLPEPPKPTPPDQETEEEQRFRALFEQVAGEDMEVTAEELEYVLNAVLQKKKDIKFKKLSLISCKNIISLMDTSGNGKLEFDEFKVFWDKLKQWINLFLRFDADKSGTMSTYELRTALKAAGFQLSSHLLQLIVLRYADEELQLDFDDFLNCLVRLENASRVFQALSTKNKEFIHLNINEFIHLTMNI
T3 sequence (P04632 1-268 partner): T1 sequence (P04632 1-268 partner)
Description: as §1, §2, §3
Column C: Human Calpain 9/NS1 IC50 (nM)_MEAN • A: <3 uM; • B: 3-10 uM; • C: >10 uM;

CC(C)[C@H](NC(=O)OCc1ccccc1)C(=O)NC1CCCN(C)C(=O)C1=O (stereo partly drawn) [Compound 6]
IC50 [1]: > 10000 nM | IC50 [2]: > 10000 nM | IC50 [3]: > 10000 nM

CC(C)[C@H](NC(=O)OCc1ccccc1)C(=O)NC1CCCNC(=O)C1=O (stereo partly drawn) [Compound 1]
IC50 [1]: 3000 to 10000 nM | IC50 [2]: 3000 to 10000 nM | IC50 [3]: > 10000 nM

CC(C)[C@H](NS(=O)(=O)c1ccc(F)cc1)C(=O)NC1CCCNC(=O)C1=O (stereo partly drawn) [Compound 3]
IC50 [1]: > 10000 nM | IC50 [2]: > 10000 nM | IC50 [3]: > 10000 nM

O=C1NCCCCCC[C@H](NC(=O)c2ccccc2-c2ccccc2)C1=O [Compound 8]
IC50 [1]: 3000 to 10000 nM | IC50 [2]: < 3000 nM | IC50 [3]: < 3000 nM

CC(C)[C@H](NC(=O)OCc1ccccc1)C(=O)N[C@H]1CCCCCCCNC(=O)C1=O [Compound 9]
IC50 [1]: < 3000 nM | IC50 [2]: < 3000 nM | IC50 [3]: < 3000 nM

CC(C)[C@H](NC(=O)OCc1ccccc1)C(=O)NC1CCNC(=O)C1=O (stereo partly drawn) [Compound 5]
IC50 [1]: > 10000 nM | IC50 [2]: > 10000 nM | IC50 [3]: > 10000 nM

CC(C)[C@H](NC(=O)OCc1ccccc1)C(=O)NC1CCCCCCNC(=O)C1=O (stereo partly drawn) [Compound 4]
IC50 [1]: < 3000 nM | IC50 [2]: < 3000 nM | IC50 [3]: < 3000 nM

CC(C)C[C@H](NC(=O)[C@@H](NC(=O)OCc1ccccc1)C(C)C)C(=O)NC1CCCNC(=O)C1=O (stereo partly drawn) [Compound 2]
IC50 [1]: > 10000 nM | IC50 [2]: 3000 to 10000 nM | IC50 [3]: > 10000 nM
